These results are taken from patent publication US8188272B2, “Fused heterocyclic compounds useful as kinase modulators” (Bristol-Myers Squibb Company, priority 2007, dated 2012).

The IC50 is the concentration that gives 50% inhibition.

T1 sequence (Q06187 whole entry): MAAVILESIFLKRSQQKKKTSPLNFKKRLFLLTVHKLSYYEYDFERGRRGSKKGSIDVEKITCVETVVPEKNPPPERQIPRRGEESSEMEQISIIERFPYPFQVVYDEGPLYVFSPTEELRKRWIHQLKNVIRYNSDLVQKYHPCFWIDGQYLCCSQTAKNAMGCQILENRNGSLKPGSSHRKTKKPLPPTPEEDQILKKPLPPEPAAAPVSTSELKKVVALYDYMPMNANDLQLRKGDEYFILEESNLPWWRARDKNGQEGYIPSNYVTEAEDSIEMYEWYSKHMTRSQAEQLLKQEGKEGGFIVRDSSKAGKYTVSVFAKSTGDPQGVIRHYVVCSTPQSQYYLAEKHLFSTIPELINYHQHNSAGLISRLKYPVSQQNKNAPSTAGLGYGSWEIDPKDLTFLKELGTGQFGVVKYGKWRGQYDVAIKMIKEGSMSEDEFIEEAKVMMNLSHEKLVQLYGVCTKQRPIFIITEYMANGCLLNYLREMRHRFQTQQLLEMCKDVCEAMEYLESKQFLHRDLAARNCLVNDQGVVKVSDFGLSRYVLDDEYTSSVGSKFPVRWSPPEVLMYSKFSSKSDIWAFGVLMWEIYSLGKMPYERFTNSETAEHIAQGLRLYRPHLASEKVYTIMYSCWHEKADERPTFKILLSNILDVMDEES

One assay has as its target T1, human recombinant Btk (Homo sapiens, UniProt Q06187).
T1 construct: purchased Invitrogen Corporation
The assay is described as follows: Human Recombinant Btk Enzyme Assay. It counts as biochemical. Particulars: human recombinant Btk 1 nM, ATP 20 μM, 60 min room temperature, Caliper LabChip. How it is done:
Human Recombinant Btk Enzyme Assay
To V-bottom 384-well plates were added test compounds, human recombinant Btk (1 nM, Invitrogen Corporation), fluoresceinated peptide (1.5 μM), ATP (20 μM), and assay buffer (20 mM HEPES pH 7.4, 10 mM MgCl2, 0.015% Brij35 and 4 mM DTT in 1.6% DMSO), with a final volume of 30 μL. After incubating at room temperature for 60 min, the reaction was terminated by adding 45 μl of 35 mM EDTA to each sample. The reaction mixture was analyzed on the Caliper LabChip 3000 (Caliper, Hopkinton, Mass.) by electrophoretic separation of the fluorescent substrate and phosphorylated product. Inhibition data were calculated by comparison to no enzyme control reactions for 100% inhibition and no inhibitor controls for 0% inhibition. Dose response curves were generated to determine the concentration required inhibiting 50% of kinase activity (IC50). Compounds were dissolved at 10 mM in dimethylsulfoxide (DMSO) and evaluated at eleven concentrations.
Using this assay, the following IC50 values derived by non-linear regression analysis were determined and compared to those values of certain compounds in US 2007/0078136 and US 2008/0045536.
For the molecule `O=C(N[C@@H]1CCCN(c2nc(Nc3ccc(C(=O)N4CCOCC4)cc3)c3nccn3n2)C1)OCc1ccccc1` [Example 4, (R)-Benzyl 1-(4-(4-(morpholine-4-carbonyl)phenylamino)imidazo[1,2-f][1,2,4]triazin-2-yl)piperidin-3-ylcarbamate], the IC50 was found to be 0.2 µM. Turning to `CC(C)(C)c1ccc(C(=O)N[C@@H]2CCCN(c3nc(Nc4ccc(C(=O)N5CC(O)C5)cc4)c4nccn4n3)C2)cc1` [Example 20], the IC50 is 0.081 µM. On to `Nc1cnc2c(Nc3ccc(C(=O)N4CCOCC4)cc3)nc(N3CCC[C@@H](NC(=O)c4cc5ccccc5[nH]4)C3)nn12` [Example 28, (R)—N-(1-(7-Amino-4-(4-(morpholine-4-carbonyl)phenylamino)imidazo[1,2-f][1,2,4]triazin-2-yl)piperidin-3-yl)-1H-indole-2-carboxamide], for which the IC50 is 0.014 µM. `CC(C)(C)c1ccc(C(=O)N[C@@H]2CCCN(c3nc(Nc4ccc(C(=O)N5CCOCC5)cc4)c4ncc(C#N)n4n3)C2)cc1` [Example 32, (R)-4-tert-Butyl-N-(1-(7-cyano-4-(4-(morpholine-4-carbonyl)phenylamino)imidazo[1,2-f][1,2,4]triazin-2-yl)piperidin-3-yl)benzamide]: the IC50 was found to be 0.1 µM. For `N[C@H]1CC[C@H](Nc2cc(Nc3ccc4ccccc4n3)c3nccn3n2)CC1` [I(159) in US 2008/0045536, reference compound], the IC50 was found to be 0.228 µM. Regarding `Cc1c(N[C@H]2CC[C@H](N)CC2)nn2ccnc2c1Nc1ccc(C(=O)N2CCOCC2)cc1` [III(18) in US 2008/0045536, reference compound], the IC50 is > 50 µM. For the molecule `O=C(c1ccc(Nc2cc(N[C@H]3CCCNC3)nn3ccnc23)cc1)N1CCOCC1` [V(10) in US 2008/0045536, reference compound], the IC50 is 1.96 µM. In the case of `CCOc1ccc(Nc2nc(N[C@H]3CC[C@H](N)CC3)nn3ccnc23)cc1` [XIII in US 2007/0078136, reference compound], the IC50 is 1.76 µM.

For a further assay, the system named is Human tonsillar B cells. The assay is described as follows: Human Tonsillar B Cell Proliferation Assay. It is filed as cell-based. Particulars: tonsillar B cells stimulated with anti Human IgG+IgM F(ab')2 40 μg/ml, 72 hours, 3[H]-thymidine. The text has this:
Human Tonsillar B Cell Proliferation Assay
Tonsils were excised from patients undergoing routine tonsillectomy. Tonsil tissue was minced, mashed through screens and mononuclear cells were isolated on ficoll density gradients (Lymphocyte Separation Media; Mediatech Inc., Herndon, Va.). T cells were depleted from mononuclear cells by rosetting with sheep red blood cells (SRBC, Colorado Serum Company; Denver, Colo.). Tonsillar B cells prepared by this method were routinely >95% CD19^+ as measured by FACS analysis. B cells (1×10^5 cells per well) were added to serial dilutions of compounds in triplicate in 96-well flat-bottom plates in RPMI 1640, (Invitrogen, Grand Island, N.Y.), supplemented with 10% heat-inactivated fetal calf serum (FCS, Summit Biotechnology, Fort Collins, Colo.), and containing antibiotic/antimycotic (Invitrogen, 1:100 dilution) and gentamicin (Invitrogen, 5 μg/ml). Cells were stimulated with 40 μg/ml AffinPure F(ab′)2 Fragment Goat anti Human IgG+IgM (Jackson Immunoresearch, West Grove, Pa.) in a total volume of 0.2 ml. Cultures were incubated for 72 hours, and pulsed for the last 6 hours with one μCi/well of ^3[H]-thymidine (PerkinElmer, Boston, Mass.) prior to harvest on a Packard cell harvester (PerkinElmer), and counted by liquid scintillation on a Packard TopCount NXT (PerkinElmer).
For `CN1CCN(C(=O)c2ccc(Nc3nc(N4CCC[C@@H](NC(=O)c5ccc(C(C)(C)C)cc5)C4)nn4ccnc34)cc2)CC1` [Example 5, (R)-4-tert-Butyl-N-(1-(4-(4-(4-methylpiperazine-1-carbonyl)phenylamino)imidazo[1,2-f][1,2,4]triazin-2-yl)piperidin-3-yl)benzamide], the IC50 is 0.037 µM. As to `CC(C)(C)c1ccc(C(=O)N[C@@H]2CCCN(c3nc(Nc4ccc(C(=O)N5CCN(CCO)CC5)cc4)c4nccn4n3)C2)cc1` [Example 6, (R)-4-tert-Butyl-N-(1-(4-(4-(4-(2-hydroxyethyl)piperazine-1-carbonyl)phenylamino)imidazo[1,2-f][1,2,4]triazin-2-yl)piperidin-3-yl)benzamide], the IC50 is 0.17 µM.

`CC(C)(C)c1ccc(C(=O)N[C@@H]2CCCN(c3nc(Nc4ccc(C(=O)N[C@H]5CCNC5)cc4)c4nccn4n3)C2)cc1` [Example 12, 4-tert-Butyl-N—((R)-1-(4-(4-((R)-pyrrolidin-3-ylcarbamoyl)phenylamino)imidazo[1,2-f][1,2,4]triazin-2-yl)piperidin-3-yl)benzamide]: the IC50 stood at 1.58 µM.

A further assay relates to Mouse splenic B cells. In words: Mouse Splenic B Cell Proliferation Assay. It is filed as cell-based. To be noted: Balb/c splenic B cells stimulated with anti-mouse IgG IgM F(ab')2 10 μg/ml, 72 hours, 3[H]-thymidine. As for the experimental part:
Mouse Splenic B Cell Proliferation Assay
Spleens from Balb/c mice (<12 weeks old) were mashed through screens and red blood cells were removed from splenocytes with RBC lysing buffer (Sigma-Aldrich Chemical Co, —St. Louis, Mo.). T cells were depleted by incubation on nylon wool columns (Wako, Richmond, Va.). Resulting splenic B cells prepared this way were routinely >90% CD19^+ as measured by FACS analysis. B cells (1×10^5 cells per well) were added to serial dilutions of compounds in triplicate in 96-well flat-bottom plates in RPMI 1640 (Invitrogen, Grand Island, N.Y.), supplemented with 10% heat-inactivated fetal calf serum (FCS, Summit Biotechnology, Fort Collins, Colo.), containing 1% L-glutamine (Invitrogen), […] gentamicin (Invitrogen) and 5×10^−5M β-mercaptoethanol (Sigma-Aldrich). Cells were stimulated with 10 μg/ml of Affinipure F(ab′)2 fragment goat anti-mouse IgG IgM (Jackson Immunoresearch, West Grove, Pa.). Cultures were incubated for 72 hours, and pulsed for the last 6 hours with one μCi/well of ^3[H]-thymidine (PerkinElmer, Boston, Mass.) prior to harvest on a Packard cell harvester (PerkinElmer), and counted by liquid scintillation on a Packard TopCount NXT (PerkinElmer).
The molecule `CC(C)(C)c1ccc(C(=O)N[C@@H]2CCCN(c3nc(Nc4ccc(C(N)=O)cc4)c4nccn4n3)C2)cc1` [Example 10, (R)-4-tert-Butyl-N-(1-(4-(4-carbamoylphenylamino)imidazo[1,2-f][1,2,4]triazin-2-yl)piperidin-3-yl)benzamide] came in with an IC50 of 0.33 µM. Turning to `NC(=O)c1cnc2c(Nc3ccc(C(=O)N4CCOCC4)cc3)nc(N3CCC[C@@H](NC(=O)c4ccccc4)C3)nn12` [Example 30, (R)-2-(3-Benzamidopiperidin-1-yl)-4-(4-(morpholine-4-carbonyl)phenylamino)imidazo[1,2-f][1,2,4]-triazine-7-carboxamide], the IC50 turned out to be 0.98 µM. On the same count and under the same terms, as for `CC(C)(C)c1ccc(C(=O)N[C@@H]2CCCN(c3nc(Nc4ccc(C(=O)N5CCOCC5)cc4)c4ncc(C#N)n4n3)C2)cc1` [Example 32, (R)-4-tert-Butyl-N-(1-(7-cyano-4-(4-(morpholine-4-carbonyl)phenylamino)imidazo[1,2-f][1,2,4]triazin-2-yl)piperidin-3-yl)benzamide], the figure is 0.31 µM.
